From PMC6272861, “In Vitro Inhibition of Human UDP-Glucuronosyl-Transferase (UGT) Isoforms by Astaxanthin, β-Cryptoxanthin, Canthaxanthin, Lutein, and Zeaxanthin: Prediction of in Vivo Dietary Supplement-Drug Interactions” (Molecules, 2016)
Like-named read-outs stand apart in the source and are kept apart here.

Experiments:
UGT2B15 = biological target: T1, UGT2B15 (Homo sapiens, UniProt P54855); assay: Inhibition of UGT2B15 (4-methylumbelliferyl glucuronidation) in recombinant human UGT2B15 supersomes; assay type: in vitro ADME
T1 construct: purchased Corning Life Sciences
T1 sequence (P54855 24-530): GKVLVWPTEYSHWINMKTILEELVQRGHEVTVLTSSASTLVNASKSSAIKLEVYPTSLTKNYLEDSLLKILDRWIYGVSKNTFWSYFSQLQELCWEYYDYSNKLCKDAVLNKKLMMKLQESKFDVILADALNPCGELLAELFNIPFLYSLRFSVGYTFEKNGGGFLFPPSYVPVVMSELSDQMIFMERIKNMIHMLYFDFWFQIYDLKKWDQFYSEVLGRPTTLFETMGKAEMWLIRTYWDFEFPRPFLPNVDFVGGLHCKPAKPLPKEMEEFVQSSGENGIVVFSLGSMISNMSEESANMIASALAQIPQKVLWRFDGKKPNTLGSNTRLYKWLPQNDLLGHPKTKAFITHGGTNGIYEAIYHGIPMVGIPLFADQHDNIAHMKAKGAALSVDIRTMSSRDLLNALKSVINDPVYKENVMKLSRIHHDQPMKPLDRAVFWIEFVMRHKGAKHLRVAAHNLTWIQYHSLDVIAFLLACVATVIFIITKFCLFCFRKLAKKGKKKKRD
Experimental: Although S-oxazepam is a typical substrate of UGT2B15 of human liver microsomes, authentic S-oxazepam and the corresponding glucuronide are not commercially […]. Thus, the inhibition of AS, βC, CA, LU, and ZE on the UGT2B15 activity was assessed using 4-methylumbelliferone as the nonspecific probe substrate for all UGTs except UGT1A4 [34] in recombinant human UGT2B15 supersomes.
The reaction was initiated by addition of 10 µL 5 mM UDPGA (to 100 µL total volume) followed by incubation for 120 min at 37 °C in a shaking water bath. Reactions were stopped by addition of 50 µL of ice-cold acetonitrile containing chlorpropamide (300 ng/mL) as an internal standard, and they were chilled and centrifuged (13,000 g, 15 min, 4 °C). An aliquot of 5 μL of supernatant was injected into an LC-MS/MS system. Additionally, identical parallel incubation samples containing a known UGT2B15 inhibitor amitriptyine (0–200 μM) was included as a positive control for UGT2B15.
(§1) For visual inspection, data were presented as Dixon plots.

UGT1A1 [1] = biological target: T2, UGT1A1 (Homo sapiens, UniProt P22309); assay: Inhibition of UGT1A1 (β-estradiol-3-glucuronidation) in human liver microsomes; conditions: for Residual UGT1A1 enzyme activity: highest tested concentration 50 μM
T2 sequence (P22309 26-533): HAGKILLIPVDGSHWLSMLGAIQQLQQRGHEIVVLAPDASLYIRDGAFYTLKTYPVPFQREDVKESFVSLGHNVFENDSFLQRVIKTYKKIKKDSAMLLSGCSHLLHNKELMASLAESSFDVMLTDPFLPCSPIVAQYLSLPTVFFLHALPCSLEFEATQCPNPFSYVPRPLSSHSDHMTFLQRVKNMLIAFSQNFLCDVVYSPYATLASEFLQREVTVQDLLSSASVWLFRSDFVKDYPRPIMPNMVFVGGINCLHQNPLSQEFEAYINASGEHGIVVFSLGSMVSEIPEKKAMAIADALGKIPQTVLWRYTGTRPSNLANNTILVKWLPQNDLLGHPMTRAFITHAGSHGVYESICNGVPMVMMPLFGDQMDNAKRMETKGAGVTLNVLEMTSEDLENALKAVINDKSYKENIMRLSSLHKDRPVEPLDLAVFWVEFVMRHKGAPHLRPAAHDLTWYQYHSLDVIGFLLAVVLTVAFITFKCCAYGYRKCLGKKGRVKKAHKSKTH
Experimental: (§2) The formation activities of β-estradiol-3-glucuronide, chenodeoxycholic acid 24-acyl-β-D-glucuronide, trifluoperazine-N-glucuronide, imipramine-N-β-D-glucuronide, serotonin-O-glucuronide, propofol-O-glucuronide, and zidovudine-5′-glucuronide were determined to probe the activities of UGT1A1, UGT1A3, UGT1A4, UGT1A6, UGT1A9 and UGT2B7, respectively, in human liver microsomes.
(§3) In brief, the 90-µL incubation mixture, including pooled human liver microsomes (final concentration 0.25 mg/mL), 100 mM Tris buffer, 25 µg/mL alamethicin, 5 mM MgCl2, the UGT-selective substrates, and five xanthophylls (0–50 μM), were pre-incubated for 30 min on ice to allow formation of alamethicin pores. Reac2345tions were initiated by the addition of 10 μL of UDPGA (5 mM) to a final reaction volume of 0.1 mL and incubated at 37 °C for 60 min (except 30 min for UGT1A9) in a shaking water bath. After incubation, each reaction was stopped by adding 50 μL of ice-cold acetonitrile containing chlorpropamide (300 ng/mL) or theophylline (30 μg/mL or 300 μg/mL) as an internal standard. The mixtures were then centrifuged (13,000 g for 15 min at 4 °C) and 5-µL aliquots of the supernatants were injected into an LC-MS/MS system. […] All incubations were performed in triplicate, and mean values were used for analysis.
(§4) Chromatographic separations were performed on an Agilent Poroshell 120 EC-C18 column (50 mm × 4.6-mm i.d.; 2.7-μm particle size; Agilent Technologies) to quantify β-estradiol-3-glucuronide (UGT1A1), chenodeoxycholic acid 24-acyl-β-D-glucuronide (UGT1A3), trifluoperazine-N-glucuronide (UGT1A4), propofol-O-glucuronide (UGT1A9), zidovudine-5′-glucuronide (UGT2B7), and 4-methylumbelliferyl glucuronide (UGT2B15); an Agilent Poroshell 120 EC-C18 column (100 × 4.6-mm i.d.; 2.7-mm particle size) was used for quantification of serotonin-O-glucuronide (UGT1A6). The isocratic mobile phase consisted of distilled water (A) and acetonitrile containing 0.1% formic acid (B) at a ratio (v/v) of 10:90 for chenodeoxycholic acid 24-acyl-β-D-glucuronide, 30:70 for trifluoperazine-N-glucuronide and zidovudine-5′-glucuronide, 50:50 for propofol-O-glucuronide and 4-methylumbelliferyl glucuronide, 65:35 for β-estradiol-3-glucuronide, and 90:10 for serotonin-O-glucuronide, at a flow rate of 0.5 mL/min. The total run time was 4.0 min per sample for each metabolite, with the exception of serotonin-O-glucuronide (6.0 min). Peak areas for all of the analytes were automatically integrated using Analyst software (version 1.5.2, Applied Biosystems, Foster City, CA, USA).
(§5) The IC50 values were calculated via nonlinear least-squares regression analysis from plots of the logarithms of inhibitor concentration vs. the residual percentages of activities after inhibition, using WinNonlin (ver. 4.0; Pharsight, Mountain View, CA, USA).

UGT1A3 = biological target: T3, UGT1A3 (Homo sapiens, UniProt P35503); assay: Inhibition of UGT1A3 (chenodeoxycholic acid 24-acyl-β-D-glucuronidation) in human liver microsomes; conditions: for Residual UGT1A3 enzyme activity: highest tested concentration 50 μM
T3 sequence (P35503 29-534): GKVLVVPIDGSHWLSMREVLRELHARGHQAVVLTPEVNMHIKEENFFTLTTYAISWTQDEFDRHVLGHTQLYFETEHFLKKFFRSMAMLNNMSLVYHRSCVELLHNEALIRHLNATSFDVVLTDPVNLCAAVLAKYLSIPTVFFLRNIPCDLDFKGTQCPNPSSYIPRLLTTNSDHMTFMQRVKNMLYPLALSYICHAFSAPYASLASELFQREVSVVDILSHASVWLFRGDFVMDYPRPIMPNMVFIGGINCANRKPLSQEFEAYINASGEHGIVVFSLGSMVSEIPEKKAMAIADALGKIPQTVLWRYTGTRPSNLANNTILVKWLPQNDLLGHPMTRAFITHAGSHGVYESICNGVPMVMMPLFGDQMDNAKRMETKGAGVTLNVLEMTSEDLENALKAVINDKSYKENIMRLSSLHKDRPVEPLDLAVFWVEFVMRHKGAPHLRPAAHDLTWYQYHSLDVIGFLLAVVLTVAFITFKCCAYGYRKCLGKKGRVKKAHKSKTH
Experimental: as §2, §3, §4, §5

UGT1A1 [2] = biological target: T2, UGT1A1; assay: Ki determination on UGT1A1 activity (β-estradiol-3-glucuronidation) in human liver microsomes
Experimental: Based on the lowest IC50 value, the inhibitor constant (Ki) values of the βC for UGT1A1 were determined. […] All incubations were performed in triplicate, and the mean values were used for the analysis. Other procedures were similar to those of the reversible inhibition studies.
as §1

[3] = design: method as in PMID 13129448; conditions: healthy subjects, single-dose carotenoid supplement containing 1.3 mg of esterified βC, oral; read-out: mean Cmax (maximum plasma concentration); cited from earlier work
UGT1A1 [4] = biological target: T2, UGT1A1; assay: Prediction of in vivo drug interaction via UGT1A1 inhibition (AUCi/AUC = 1 + [I]in vivo/Ki); design: pooled human liver microsomes (final concentration 0.25 mg/mL); tissue Corning Life Sciences; host or cells: pooled human liver microsomes, 150 donors
Description: As far as we know, for reversible inhibitors, the magnitude of the drug-drug interaction is affected by both the in vitro inhibition constant (Ki) and the in vivo inhibitor concentration. […] In this study, the maximum plasma concentration (Cmax) of βC was used as the [I]in vivo value, and the fraction metabolized by the UGT1A1 of the co-administrated drug was supposed to be 1.

[5] = recombinant UGT2B15 supersomes, 250 μM 4-methylumbelliferone, mean ± SD of triplicate, read-out: IC50 towards UGT2B15
[6] = read-out: IC50 towards UGT1A1, human liver microsomes, 10 μM β-estradiol, mean ± SD of triplicate
[7] = read-out: IC50 towards UGT1A3, human liver microsomes, 15 μM chenodeoxycholic acid, mean ± SD of triplicate

Row | SMILES | IC50 (UGT2B15) | IC50 (UGT1A1 [1]) | Residual UGT1A1 enzyme activity (UGT1A1 [1]; human liver microsomes) | IC50 (UGT1A3) | Residual UGT1A3 enzyme activity (UGT1A3; human liver microsomes) | IC50 (UGT2B15; [5]) | IC50 (UGT1A1 [1]; [6]) | IC50 (UGT1A3; [7]) | Mode of inhibition of UGT1A1 (UGT1A1 [2]; Dixon plots / nonlinear regression) | Ki (UGT1A1 [2]; read-out: Ki against UGT1A1-catalyzed β-estradiol-3-glucuronidation, β-estradiol 5, 10 and 20 μM, nonlinear regression) | Cmax [3] | AUCi/AUC ratio for UGT1A1 (UGT1A1 [4]; calculated from Cmax 0.15 μM and Ki, fraction metabolized by UGT1A1 supposed to be 1) | Predicted increase of AUC of co-administered drug (UGT1A1 [4]; drugs that undergo 100% UGT1A1-mediated elimination)
1 | CC1=C(/C=C/C(C)=C/C=C/C(C)=C/C=C/C=C(C)/C=C/C=C(C)/C=C/C2=C(C)C(=O)CCC2(C)C)C(C)(C)CCC1=O [CA, canthaxanthin] |  |  |  |  |  | > 50 µM | 38.5 ± 4.65 µM | 41.2 ± 3.14 µM |  |  |  |  | 
2 | CC1=C(/C=C/C(C)=C/C=C/C(C)=C/C=C/C=C(C)/C=C/C=C(C)/C=C/C2=C(C)C(=O)[C@@H](O)CC2(C)C)C(C)(C)C[C@H](O)C1=O [AS, astaxanthin] | > 50 µM | > 50 µM | greater than 80% | > 50 µM | greater than 80% |  |  |  |  |  |  |  | 
3 | CC1=C(/C=C/C(C)=C/C=C/C(C)=C/C=C/C=C(C)/C=C/C=C(C)/C=C/C2=C(C)C[C@@H](O)CC2(C)C)C(C)(C)CCC1 [βC, β-cryptoxanthin] |  |  |  |  |  | > 50 µM | 18.8 ± 2.07 µM | 28.3 ± 4.4 µM | competitive inhibition | 12.2 ± 0.985 µM | ~150 nM | 1.012 | 1.2%

Now from value to compound, other results behind:

Row | IC50 (UGT2B15) | IC50 (UGT1A1 [1]) | Residual UGT1A1 enzyme activity (UGT1A1 [1]; human liver microsomes) | IC50 (UGT1A3) | Residual UGT1A3 enzyme activity (UGT1A3; human liver microsomes) | SMILES | IC50 (UGT2B15; [5]) | IC50 (UGT1A1 [1]; [6]) | IC50 (UGT1A3; [7]) | Mode of inhibition of UGT1A1 (UGT1A1 [2]; Dixon plots / nonlinear regression) | Ki (UGT1A1 [2]; read-out: Ki against UGT1A1-catalyzed β-estradiol-3-glucuronidation, β-estradiol 5, 10 and 20 μM, nonlinear regression) | Cmax [3] | AUCi/AUC ratio for UGT1A1 (UGT1A1 [4]; calculated from Cmax 0.15 μM and Ki, fraction metabolized by UGT1A1 supposed to be 1) | Predicted increase of AUC of co-administered drug (UGT1A1 [4]; drugs that undergo 100% UGT1A1-mediated elimination)
4 | > 50 µM | > 50 µM | 61.2% | > 50 µM | 64.2% | CC1=C(/C=C/C(C)=C/C=C/C(C)=C/C=C/C=C(C)/C=C/C=C(C)/C=C/C2=C(C)C[C@@H](O)CC2(C)C)C(C)(C)C[C@H](O)C1 [ZE, zeaxanthin] |  |  |  |  |  |  |  | 
5 | > 50 µM | 45.5 ± 4.01 µM |  | > 50 µM |  | CC1=C[C@H](O)CC(C)(C)[C@H]1/C=C/C(C)=C/C=C/C(C)=C/C=C/C=C(C)/C=C/C=C(C)/C=C/C1=C(C)C[C@@H](O)CC1(C)C [LU, lutein] |  |  |  |  |  |  |  | 
